Test results published in ChEMBL document CHEMBL5380812, “Structural Dynamics-Driven Discovery of Anticancer and Antimetastatic Effects of Diltiazem and Glibenclamide Targeting Urokinase Receptor” (J Med Chem, 2023).
The source made the active and inactive calls. No cut-off for these calls is given here.

Tests used:
[1] = tested on: Urokinase plasminogen activator surface receptor (Homo sapiens), Q03405 [UNDEFINED MUTATION]; conditions: dose 100.0 µM
Description: Binding affinity to uPAR H47C/N259C (unknown origin) mutant assessed as response unit at 100 uM by surface plasmon resonance (SPR) analysis relative to control

[2] = biological target: Urokinase plasminogen activator surface receptor (Homo sapiens, UniProt Q03405, H47C/N259C); test: Binding affinity to uPAR H47C/N259C (unknown origin) mutant assessed as equilibrium dissociation constant by surface plasmon resonance (SPR) analysis relative to control
Chain of Urokinase plasminogen activator surface receptor (Q03405 23-305 H69C/N281C limits assumed): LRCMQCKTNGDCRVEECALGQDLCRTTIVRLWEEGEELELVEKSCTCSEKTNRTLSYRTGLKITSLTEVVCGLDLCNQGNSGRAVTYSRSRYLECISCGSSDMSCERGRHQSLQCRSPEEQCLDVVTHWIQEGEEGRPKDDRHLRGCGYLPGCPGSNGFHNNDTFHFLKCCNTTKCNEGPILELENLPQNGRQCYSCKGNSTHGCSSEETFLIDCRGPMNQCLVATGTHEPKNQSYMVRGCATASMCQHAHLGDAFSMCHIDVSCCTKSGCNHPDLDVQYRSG

[3] = Toxicity in Balb/c mouse homografted with mouse CT-26-muPAR-mCherry cells assessed as vascular hyperemia at 100 mg/kg, po every two days for 15 days; assay type: organism-based; conditions: in vivo, 360 h, time 15 day
CT26 [4] = test: In vivo antimetastatic activity against mouse CT26-muPAR-mCherry cells intravenously homografted in Balb/c mouse lung metastatic model assessed as suppression of mCherry fluorescence in lung at 30 mg/kg, po every two days for 15 days relative to control; assay type: functional; conditions: time 15 day
PC-3 [5] = test: Inhibition of cell migration in human PC-3 cells assessed as wound healing measured upto 100 uM; assay type: cell-based
PC-3 [6] = test: Antiinvasive activity against human PC-3 cells expressing high uPAR assessed as inhibition of invasive property without matrigel at upto 100 uM incubated for 24 hrs by crystal violet staining based - Transwell assay; assay type: functional, cell-based
MCF7 [7] = test: Antiinvasive activity against short hairpin RNA sequence of uPA containing vector transfected human MCF7-shuPA cells assessed as suppression of invasive property at upto 100 uM incubated for 24 hrs by Crystal violet staining based - Transwell assay; assay type: functional, cell-based
HUVEC = test: Antiangiogenic activity against HUVEC cells assessed as inhibition of formation of capillary-like polygons/fork-like branches in serum free medium at 100 uM; assay type: functional, cell-based; conditions: Homo sapiens
PC-3 [8] = test: Cytotoxicity against human PC-3 cells assessed as survival rate without matrigel at upto 100 uM; assay type: toxicity, cell-based; conditions: pc-3, 100 µM
MCF7 [9] = test: Antiinvasive activity against empty vector transfected human MCF7 cells assessed as suppression of invasive property at upto 100 uM incubated for 24 hrs by Crystal violet staining based - Transwell assay; assay type: functional, cell-based
CT26 [10] = test: In vivo antimetastatic activity against mouse CT-26-muPAR-mCherry cells intravenously homografted in Balb/c mouse lung metastatic model assessed as suppression of hyperplasia-induced lung weight increase at 30 to 100 mg/kg, po every two days for 15 days; assay type: functional, organism-based; conditions: dose 30-100 mg/kg, time 15.0 day
HEK-293T = test: Antimetastatic activity against uPAR-overexpressing HEK293T cells assessed as suppression of invasive property incubated for 24 hrs by Crystal violet staining based - Transwell assay; assay type: functional, cell-based; conditions: Homo sapiens, dose 0-100 µM
PC-3 [11] = test: Antiinvasive activity against human PC-3 cells expressing high uPAR assessed as inhibition of invasive property incubated for 24 hrs by Crystal violet staining based - Transwell assay; assay type: functional, cell-based; conditions: dose 0-100 µM
CT26 [12] = test: In vivo antitumor activity against mouse CT26 cells subcutaneously homografted in Balb/c mouse model assessed as tumor weight at 100 mg/kg, po every two days for 14 days relative to control; assay type: functional; conditions: CT26, 336 h, time 14 day
CT26 [13] = test: In vivo antitumor activity against mouse CT26 cells subcutaneously homografted in Balb/c mouse model assessed as suppression of tumor growth at 100 mg/kg, po every two days for 14 days; assay type: functional, organism-based; conditions: time 14.0 day
CT26 [14] = test: In vivo antimetastatic activity against mouse CT-26-muPAR-mCherry cells intravenously homografted in Balb/c mouse lung metastatic model assessed as suppression of metastases of cancer cells around vessels at 100 mg/kg, po every two days for 15 days by histopathological analysis; assay type: functional, organism-based; conditions: time 15.0 day
[15] = Toxicity in Balb/c mouse homografted with mouse CT26 cells assessed as body weight at 100 mg/kg, po every two days for 14 days; assay type: organism-based; conditions: in vivo, 336 h, time 14 day
[16] = Toxicity in Balb/c mouse homografted with mouse CT-26-muPAR-mCherry cells assessed as adverse effect at 100 mg/kg, po every two days for 15 days; assay type: organism-based; conditions: in vivo, 360 h, time 15 day
MDA-MB-231 = test: Antiinvasive activity against human MDA-MB-231 cells expressing moderate uPAR assessed as inhibition of invasive property at upto 100 uM incubated for 24 hrs by Crystal violet staining based - Transwell assay; assay type: functional, cell-based
CT26 [17] = test: Antiinvasive activity against mouse CT26 cells assessed as suppression of invasive property incubated for 24 hrs by Crystal violet staining based - Transwell assay; assay type: functional, cell-based; conditions: dose 0-100 µM
CT26 [18] = test: Antiinvasive activity against mouse CT26-muPAR-mCherry cells assessed as suppression of invasive property incubated for 24 hrs by Crystal violet staining based - Transwell assay; assay type: functional, cell-based; conditions: dose 0-100 µM
CT26 [19] = test: In vivo antimetastatic activity against mouse CT26-muPAR-mCherry cells intravenously homografted in Balb/c mouse lung metastatic model assessed as suppression of mCherry fluorescence in lung at 100 mg/kg, po every two days for 15 days relative to control; assay type: functional; conditions: time 15 day
Caco-2 = test: Antiinvasive activity against uPAR-negative human Caco-2 cells assessed as inhibition of invasive property at upto 100 uM incubated for 24 hrs by Crystal violet staining based - Transwell assay; assay type: functional, cell-based
CT26 [20] = test: In vivo antimetastatic activity against mouse CT-26-muPAR-mCherry cells intravenously homografted in Balb/c mouse lung metastatic model assessed as suppression of hyperplastic nodules on the pleural surface in lung at 30 to 100 mg/kg, po every two days for 15 days; assay type: functional, organism-based; conditions: dose 30-100 mg/kg, time 15.0 day
[21] = Inhibition of human recombinant […]/uPAR (unknown origin) interaction measured after 2 hrs by ELISA
CT26 [22] = test: In vivo antimetastatic activity against mouse CT-26-muPAR-mCherry cells intravenously homografted in Balb/c mouse lung metastatic model assessed as suppression of metastases of cancer cells around vessels at 300 mg/kg, po every two days for 15 days by histopathological analysis; assay type: functional, organism-based; conditions: time 15.0 day
CT26 [23] = test: In vivo antimetastatic activity against mouse CT-26-muPAR-mCherry cells intravenously homografted in Balb/c mouse lung metastatic model assessed as suppression of hyperplasia-induced lung weight increase at 30 to 100 to 300 mg/kg, po every two days for 15 days; assay type: functional, organism-based; conditions: dose 100-300 mg/kg, time 15.0 day
[24] = Toxicity in Balb/c mouse homografted with mouse CT-26-muPAR-mCherry cells assessed as adverse effect at 300 mg/kg, po every two days for 15 days; assay type: organism-based; conditions: in vivo, 360 h, time 15 day
[25] = Toxicity in Balb/c mouse homografted with mouse CT26 cells assessed as body weight at 300 mg/kg, po every two days for 14 days; assay type: organism-based; conditions: in vivo, 336 h, time 14 day
CT26 [26] = test: In vivo antitumor activity against mouse CT26 cells subcutaneously homografted in Balb/c mouse model assessed as suppression of tumor growth at 300 mg/kg, po every two days for 14 days; assay type: functional, organism-based; conditions: time 14.0 day
CT26 [27] = test: In vivo antimetastatic activity against mouse CT26-muPAR-mCherry cells intravenously homografted in Balb/c mouse lung metastatic model assessed as suppression of mCherry fluorescence in lung at 300 mg/kg, po every two days for 15 days relative to control; assay type: functional; conditions: time 15 day
CT26 [28] = test: In vivo antimetastatic activity against mouse CT-26-muPAR-mCherry cells intravenously homografted in Balb/c mouse lung metastatic model assessed as suppression of hyperplastic nodules on the pleural surface in lung at 100 to 300 mg/kg, po every two days for 15 days; assay type: functional, organism-based; conditions: dose 100-300 mg/kg, time 15.0 day
CT26 [29] = test: In vivo antitumor activity against CT26 cells subcutaneously homografted in Balb/c mouse model assessed as tumor weight at 300 mg/kg, po every two days for 14 days relative to control; assay type: functional; conditions: CT26, 336 h, time 14 day

Chain of Urokinase plasminogen activator surface receptor (Homo sapiens), Q03405 [UNDEFINED MUTATION] (Q03405 whole entry, looked up, stated change not applied): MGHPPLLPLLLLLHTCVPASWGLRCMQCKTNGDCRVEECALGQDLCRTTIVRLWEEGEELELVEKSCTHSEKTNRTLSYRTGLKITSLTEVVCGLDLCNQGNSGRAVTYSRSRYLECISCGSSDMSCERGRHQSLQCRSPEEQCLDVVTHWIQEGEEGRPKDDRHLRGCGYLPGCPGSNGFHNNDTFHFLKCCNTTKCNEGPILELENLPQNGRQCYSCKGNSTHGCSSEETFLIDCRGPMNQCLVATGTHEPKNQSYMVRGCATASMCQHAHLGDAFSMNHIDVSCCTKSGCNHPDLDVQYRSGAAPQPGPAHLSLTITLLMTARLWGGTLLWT

With O=C(/C=C/c1ccc(O)c(O)c1)OCCc1ccccc1 the RU [1] was 8.

CCOC(=O)Nc1ccc(NCc2ccc(F)cc2)nc1N gave an RU [1] of 15.

In the case of Cc1ccc(S(=O)(=O)N[C@@H](CCCCN)C(=O)CCl)cc1, the RU [1] is reported as 0.

O=C1CC2(CCCC2)CC(=O)N1CCCCN1CCN(c2ncccn2)CC1 showed an RU [1] of 1.

Work on CC(CCc1ccc(O)cc1)NCCc1ccc(O)c(O)c1 (centres undefined) yielded an RU [1] of 5.5.

With CCN(CC)CCCC(C)Nc1c2ccc(Cl)cc2nc2ccc(OC)cc12 (centres undefined) the RU [1] was 20.

CNCCCC12CCC(c3ccccc31)c1ccccc12 [MAPROTILINE] showed a Kd [2] of 79.7 µM and an RU [1] of 13.

CCc1c(C)[nH]c2c1C(=O)C(CN1CCOCC1)CC2 (centres undefined) gave an RU [1] of 8.

Compound CNC(=C[N+](=O)[O-])NCCSCc1ccc(CN(C)C)o1 has an RU [1] of 0.

For CCCCCOC(=O)Nc1nc(=O)n([C@@H]2O[C@@H](O)[C@@H](O)[C@H]2O)cc1F, the RU [1] was 1.

With CCN(CC)CCOC(=O)c1ccc(N)cc1 the RU [1] was 17.

Work on CNCC(O)c1ccc(O)cc1 (centres undefined) yielded an RU [1] of 0.5.

With O=C(O)CCc1nc(-c2ccccc2)c(-c2ccccc2)o1 [OXAPROZIN] the Kd [2] was 114 µM and the RU [1] was 20.

In the case of COc1ccc(CN(CCN(C)C)c2ccccc2)cc1, the RU [1] is reported as 1.7.

NC(CO)C(=O)NNCc1ccc(O)c(O)c1O (centres undefined) showed an RU [1] of 0.

In the case of CN(C)CCCC1(c2ccc(F)cc2)OCc2cc(C#N)ccc21 (centres undefined), the RU [1] is reported as 7.

For CCN[C@H]1CN(CCCOC)S(=O)(=O)c2sc(S(N)(=O)=O)cc21, the RU [1] was -1.

In the case of COc1ccc([C@@H]2Sc3ccccc3N(CCN(C)C)C(=O)[C@@H]2OC(C)=O)cc1 [DILTIAZEM], the Activity [3] is reported as “Toxic”, the Activity (CT26 [4]) is reported as 61% and the Activity (PC-3 [5]) is reported as “Active”. For the same compound, the Activity (PC-3 [6]) was “Active”, the Activity (MCF7 [7]) was “Active” and the Kd [2] was 39.2 µM. For the same compound, the Activity (HUVEC) was “Active”, the Activity (PC-3 [8]) was “Non-Toxic” and the Activity (MCF7 [9]) was “Active”. For the same compound, the Activity (CT26 [10]) was “Active”, the Activity (HEK-293T) was “Dose-Dependent Effect” and the Activity (PC-3 [11]) was “Dose-Dependent Effect”. The RU [1] was 12, the inhibition in vivo at 100 mg/kg (CT26 [12]) was 73.2% and the Activity (CT26 [13]) was “Active”. For the same compound, the Activity (CT26 [14]) was “Active”, the Activity [15] was “Non-Toxic” and the Activity [16] was “Non-Toxic”. For the same compound, the Activity (MDA-MB-231) was “Active”, the Activity (CT26 [17]) was “Dose-Dependent Effect” and the Activity (CT26 [18]) was “Dose-Dependent Effect”. The Activity (CT26 [19]) was 76%, the Activity (Caco-2) was “inactive” and the Activity (CT26 [20]) was “Active”. The IC50 [21] was 58.6 µM.

With COc1ccc(Cl)cc1C(=O)NCCc1ccc(S(=O)(=O)NC(=O)NC2CCCCC2)cc1 [GLYBURIDE] the Activity (CT26 [22]) was “Active”, the Activity (PC-3 [5]) was “Active” and the Activity (PC-3 [6]) was “Active”. For the same compound, the Activity (MCF7 [7]) was “Active”, the Kd [2] was 40.4 µM and the Activity (HUVEC) was “Active”. The Activity (CT26 [23]) was “Active”, the Activity (PC-3 [8]) was “Non-Toxic” and the Activity [24] was “Non-Toxic”. For the same compound, the Activity [25] was “Non-Toxic”, the Activity (MCF7 [9]) was “Active” and the Activity (HEK-293T) was “Dose-Dependent Effect”. The Activity (CT26 [26]) was “Active”, the Activity (PC-3 [11]) was “Dose-Dependent Effect” and the RU [1] was 33. The Activity (CT26 [27]) was 83%, the Activity (MDA-MB-231) was “Active” and the Activity (CT26 [17]) was “Dose-Dependent Effect”. For the same compound, the Activity (CT26 [28]) was “Active”, the Activity (CT26 [18]) was “Dose-Dependent Effect” and the Activity (CT26 [19]) was 70%. For the same compound, the Activity (Caco-2) was “inactive”, the inhibition in vivo at 300 mg/kg (CT26 [29]) was 62.8% and the IC50 [21] was 69.5 µM.

Work on CC(=O)OCC(CCn1cnc2cnc(N)nc21)COC(C)=O yielded an RU [1] of -4.

CN/C(=N\CCSCc1nc[nH]c1C)NC#N gave an RU [1] of -3.

O=C(CCCN1CCC(O)(c2ccc(Cl)cc2)CC1)c1ccc(F)cc1 [HALOPERIDOL] showed a Kd [2] of 41.2 µM and an RU [1] of 10.

For CCc1c(C)[nH]c2c1C(=O)CC(CN1CCOCC1)C2 (centres undefined), the RU [1] was 11.

In the case of CN(C)CCC=C1c2ccccc2CCc2ccccc21, the RU [1] is reported as 11.

Compound CCCCC1C(=O)N(c2ccccc2)N(c2ccccc2)C1=O has an RU [1] of 2.7.

Compound CC(C)=CCOc1c2occc2cc2ccc(=O)oc12 has an RU [1] of 1.

For O=C(O)c1cccnc1Nc1cccc(C(F)(F)F)c1, the RU [1] was 7.

In the case of CC(C)(C)c1ccc(C(=O)CCCN2CCC(OC(c3ccccc3)c3ccccc3)CC2)cc1, the RU [1] is reported as 1.5.

COC(=O)[C@@H](N)CCCNC(=N)N[N+](=O)[O-] gave an RU [1] of 0.
